Experimental data as given in patent US10597388B2, “Pyridazinone herbicides” (FMC CORPORATION, priority 2014, dated 2020).

Legend:
Test in all cases: Test D controlled growth environment herbicide test, pre- and postemergence
Type in all cases: in vivo
[1] = tested on: barley, spring (spring barley, Hordeum vulgare)
Outline: (§1)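 Rating is visual, 0–100 scale (100 = complete control), made against untreated plants 14–21 d after treatment in controlled growth conditions. Postemergence sprays went onto 1- to 4-leaf plants in peat medium; preemergence sprays onto silt loam after sowing; formulation included a surfactant.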

[2] = tested on: barley, winter (winter barley, Hordeum vulgare)
Outline: as §1

[3] = tested on: bluegrass (annual bluegrass, Poa annua)
Outline: as §1

[4] = tested on: buckwheat, wild (wild buckwheat, Polygonum convolvulus)
Outline: as §1

[5] = tested on: chamomile (scentless chamomile, Matricaria inodora)
Outline: as §1

[6] = tested on: field poppy (Papaver rhoeas)
Outline: as §1

[7] = tested on: galium (catchweed bedstraw, Galium aparine)
Outline: as §1

[8] = tested on: mustard, wild (wild mustard, Sinapis arvensis)
Outline: as §1

[9] = tested on: oat, wild (wild oat, Avena fatua)
Outline: as §1

[10] = tested on: oilseed rape (Brassica napus)
Outline: as §1

[11] = tested on: pigweed (Amaranthus retroflexus)
Outline: as §1

[12] = tested on: radish, wild (wild radish, Raphanus raphanistrum)
Outline: as §1

[13] = tested on: speedwell (bird's-eye speedwell, Veronica persica)
Outline: as §1

[14] = Postemergence, 31 g ai/ha, scale 0 to 100 (0 no effect, 100 complete control)
[15] = Postemergence, 125 g ai/ha, visual rating on scale 0 (no effect) to 100 (complete control), 14 to 21 d
[16] = Postemergence, 250 g ai/ha, scale 0 to 100 (0 no effect, 100 complete control)
[17] = Preemergence, 62 g ai/ha, scale 0 to 100 (0 no effect, 100 complete control)
[18] = Preemergence, 125 g ai/ha, scale 0 to 100 (0 no effect, 100 complete control)
[19] = Preemergence, 250 g ai/ha, scale 0 to 100 (0 no effect, 100 complete control)
[20] = postemergence, 62 g ai/ha, scale 0 to 100, 0 no effect, 100 complete control

## CCOC(=O)Oc1c(C)nn(C)c(=O)c1-c1c(C)sc2ccc(C)cc12 [Compound 82]
[1]; [14]
  Barley, Spring plant response rating: 0
[1]; [15]
  Plant response rating, Barley, Spring: 0
[1]; [16]
  Plant response rating, Barley, Spring: 5
[1]; Preemergence, 31 g ai/ha
  Plant response rating (scale of 0 to 100), Barley, Spring: 0
[1]; [17]
  Plant response rating, Barley, Spring: 0
[1]; [18]
  Plant response rating, Barley, Spring: 0
[1]; [19]
  Plant response rating, Barley, Spring: 10
[1]; [20]
  Plant response rating, Barley, Spring: 5
[2]; [14]
  Barley, Winter plant response rating: 0
[2]; [15]
  Plant response rating, Barley, Winter: 0
[2]; [16]
  Plant response rating, Barley, Winter: 0
[2]; Preemergence, 31 g ai/ha
  Plant response rating (scale of 0 to 100), Barley, Winter: 0
[2]; [17]
  Plant response rating, Barley, Winter: 0
[2]; [18]
  Plant response rating, Barley, Winter: 5
[2]; [19]
  Plant response rating, Barley, Winter: 25
[2]; [20]
  Plant response rating, Barley, Winter: 0
[3]; [14]
  Bluegrass plant response rating: 10
[3]; [15]
  Plant response rating, Bluegrass: 30
[3]; [16]
  Plant response rating, Bluegrass: 35
[3]; Preemergence, 31 g ai/ha
  Plant response rating (scale of 0 to 100), Bluegrass: 15
[3]; [17]
  Plant response rating, Bluegrass: 45
[3]; [18]
  Plant response rating, Bluegrass: 65
[3]; [19]
  Plant response rating, Bluegrass: 80
[3]; [20]
  Plant response rating, Bluegrass: 20
[4]; [14]
  Buckwheat, Wild plant response rating: 85
[4]; [15]
  Plant response rating, Buckwheat, Wild: 100
[4]; [16]
  Plant response rating, Buckwheat, Wild: 100
[4]; Preemergence, 31 g ai/ha
  Plant response rating (scale of 0 to 100), Buckwheat, Wild: 35
[4]; [17]
  Plant response rating, Buckwheat, Wild: 0
[4]; [18]
  Plant response rating, Buckwheat, Wild: 15
[4]; [19]
  Plant response rating, Buckwheat, Wild: 0
[4]; [20]
  Plant response rating, Buckwheat, Wild: 100
[5]; [14]
  Chamomile plant response rating: 90
[5]; [15]
  Plant response rating, Chamomile: 100
[5]; [16]
  Plant response rating, Chamomile: 100
[5]; Preemergence, 31 g ai/ha
  Plant response rating (scale of 0 to 100), Chamomile: 100
[5]; Preemergence, 62 g ai/ha
  Plant response rating (scale of 0 to 100), Chamomile: 100
[5]; [18]
  Plant response rating, Chamomile: 100
[5]; [19]
  Plant response rating, Chamomile: 100
[5]; [20]
  Plant response rating, Chamomile: 100
[6]; [14]
  Field Poppy plant response rating: 70
[6]; [15]
  Plant response rating, Field Poppy: 95
[6]; [16]
  Plant response rating, Field Poppy: 100
[6]; Preemergence, 31 g ai/ha
  Plant response rating (scale of 0 to 100), Field Poppy: 95
[6]; Preemergence, 62 g ai/ha
  Plant response rating (scale of 0 to 100), Field Poppy: 100
[6]; [18]
  Plant response rating, Field Poppy: 100
[6]; [19]
  Plant response rating, Field Poppy: 100
[6]; [20]
  Plant response rating, Field Poppy: 85
[7]; [14]
  Galium plant response rating: 90
[7]; [15]
  Plant response rating, Galium: 100
[7]; [16]
  Plant response rating, Galium: 100
[7]; Preemergence, 31 g ai/ha
  Plant response rating (scale of 0 to 100), Galium: 60
[7]; Preemergence, 62 g ai/ha
  Plant response rating (scale of 0 to 100), Galium: 60
[7]; [18]
  Plant response rating, Galium: 80
[7]; [19]
  Plant response rating, Galium: 85
[7]; [20]
  Plant response rating, Galium: 100
[8]; [14]
  Mustard, Wild plant response rating: 25
[8]; [15]
  Plant response rating, Mustard, Wild: 40
[8]; [16]
  Plant response rating, Mustard, Wild: 70
[8]; Preemergence, 31 g ai/ha
  Plant response rating (scale of 0 to 100), Mustard, Wild: 0
[8]; Preemergence, 62 g ai/ha
  Plant response rating (scale of 0 to 100), Mustard, Wild: 0
[8]; [18]
  Plant response rating, Mustard, Wild: 25
[8]; [19]
  Plant response rating, Mustard, Wild: 15
[8]; [20]
  Plant response rating, Mustard, Wild: 35
[9]; [14]
  Oat, Wild plant response rating: 90
[9]; [15]
  Plant response rating, Oat, Wild: 95
[9]; [16]
  Plant response rating, Oat, Wild: 95
[9]; Preemergence, 31 g ai/ha
  Plant response rating (scale of 0 to 100), Oat, Wild: 80
[9]; Preemergence, 62 g ai/ha
  Plant response rating (scale of 0 to 100), Oat, Wild: 85
[9]; [18]
  Plant response rating, Oat, Wild: 95
[9]; [19]
  Plant response rating, Oat, Wild: 95
[9]; [20]
  Plant response rating, Oat, Wild: 90
[10]; [14]
  Oilseed Rape plant response rating: 25
[10]; [15]
  Plant response rating, Oilseed Rape: 60
[10]; [16]
  Plant response rating, Oilseed Rape: 80
[10]; Preemergence, 31 g ai/ha
  Plant response rating (scale of 0 to 100), Oilseed Rape: 30
[10]; Preemergence, 62 g ai/ha
  Plant response rating (scale of 0 to 100), Oilseed Rape: 35
[10]; [18]
  Plant response rating, Oilseed Rape: 35
[10]; [19]
  Plant response rating, Oilseed Rape: 60
[10]; [20]
  Plant response rating, Oilseed Rape: 45
[11]; [14]
  Pigweed plant response rating: 90
[11]; [15]
  Plant response rating, Pigweed: 100
[11]; [16]
  Plant response rating, Pigweed: 100
[11]; Preemergence, 31 g ai/ha
  Plant response rating (scale of 0 to 100), Pigweed: 100
[11]; Preemergence, 62 g ai/ha
  Plant response rating (scale of 0 to 100), Pigweed: 100
[11]; [18]
  Plant response rating, Pigweed: 100
[11]; [19]
  Plant response rating, Pigweed: 100
[11]; [20]
  Plant response rating, Pigweed: 100
[12]; [14]
  Radish, Wild plant response rating: 25
[12]; [15]
  Plant response rating, Radish, Wild: 50
[12]; [16]
  Plant response rating, Radish, Wild: 60
[12]; Preemergence, 31 g ai/ha
  Plant response rating (scale of 0 to 100), Radish, Wild: 65
[12]; Preemergence, 62 g ai/ha
  Plant response rating (scale of 0 to 100), Radish, Wild: 60
[12]; [18]
  Plant response rating, Radish, Wild: 60
[12]; [19]
  Plant response rating, Radish, Wild: 100
[12]; [20]
  Plant response rating, Radish, Wild: 20
[13]; [14]
  Speedwell plant response rating: 70
[13]; [15]
  Plant response rating, Speedwell: 85
[13]; [16]
  Plant response rating, Speedwell: 85
[13]; Preemergence, 31 g ai/ha
  Plant response rating (scale of 0 to 100), Speedwell: 75
[13]; Preemergence, 62 g ai/ha
  Plant response rating (scale of 0 to 100), Speedwell: 75
[13]; [18]
  Plant response rating, Speedwell: 100
[13]; [19]
  Plant response rating, Speedwell: 100
[13]; [20]
  Plant response rating, Speedwell: 75
